Columns and labels:
[1] = test system: total acidity of the gastric secretions; experiment: Anti-gastric secretory activity (pylorus ligature, Shay technique); assay type: in vivo, rat; settings: male rats, intraduodenal, 10 mg/kg, 3 hours
Method: (1) Determination of the anti-gastric secretory activity.
The technique used is described by H. SHAY et al in Gastroenterology 5, 43, 1945.
Male rats are used weighing about 200 g (10 animals per group), deprived of nourishment for 48 hours, but having as much as desired of an 8% glucose solution. The pylorus of the rats is ligatured, the rats having been lightly anesthetized with ether. Then, at the end of the operation, the compounds under test are administered at various doses, or for the control animals, a 0.5% carboxymethyl cellulose solution is administered by intraduodenal route. Then the abdominal incision is sutured.
Three hours later, the animals are killed and their stomachs are removed after ligature of the oesophagus. The gastric juice is removed and centrifuged. Then the volume is measured; and on 100 μl of gastric juice, the total acidity is determined by titration at pH 7 with N/10 sodium hydroxide.
The percentages of variation of total acidity of the gastric secretions are calculated in relation to the results obtained with the control animals.

[2] = test system: ulcers in the stomachs of the rats; experiment: Anti-ulcer activity, ulcer from stress (constraint and cold); assay type: in vivo, rat; settings: female rats, by probang, 10 mg/kg
Method: (2) Determination of anti-ulcer activity
The technique consists of inducing ulcers in the stomachs of the rats through stress (constraint and cold.)
The technique used is described by E. C. SENAY and R. J. LEVINE, Proc. Soc. Exp. Biol. 124, 1221 (1967).
Female rats weighing 150 g are used (5 animals per group), starved for 48 hours with water "ad libitum" and glucose solution for 8 hours. The animals receive the product under test by a probang, or the control animals receive a 0.5% carboxymethyl cellulose solution.
Two hours later, the animals are wrapped up in a wire-netting jacket, their paws are bound and the whole is placed in a refrigerator at 8° C. for two hours. The rats are freed and killed with ether.
Their stomachs are removed, opened along the greater curvature and examined by means of a binocular magnifier; the seriousness of the lesions is rated from 0 to 3 for each stomach.
For each group of rats the average intensity of the ulcerations is calculated, then for each group the degree of ulceration in relation to the controls is determined.
Product 1 is the product of Example 1; Product p is the product of Example 1 of U.S. Pat. No. 4,473,583.

[3] = Acute toxicity (LD50), oral route; settings: in vivo, mouse
Method: (3) Determination of actute toxicity
The lethal dose 50 (LD50) was evaluated after administration of the products by oral route to a mouse.

O=C(O)C=CC(=O)c1ccccc1 [p]
Anti-secretory activity: Acid Concentration (% variation in relation to the controls) [1]: -66% | Anti-ulcer activity: Ulceration (% variation in relation to the controls) [2]: -54% | LD50 [3]: 250 mg/kg

COc1ccccc1C(=O)/C=C/C(=O)O [Product 1, (E) 4-(2-methoxyphenyl)-4-oxo-2-butenoic acid]
Anti-secretory activity: Acid Concentration (% variation in relation to the controls) [1]: -78% | Anti-ulcer activity: Ulceration (% variation in relation to the controls) [2]: -80% | LD50 [3]: 370 mg/kg
